Results taken from ChEMBL document CHEMBL5365540, “Structure-activity relationship studies and biological properties evaluation of peptidic NRP-1 ligands: Investigation of N-terminal cysteine importance” (Bioorg Med Chem, 2023).
One block for each molecule: values may come before it. Calls of active or inactive are those of the source. No cut-off for these calls is given here. Where a SMILES comes first, the peptide text is derived from it. Side-chain parts run from the residue outwards. [ ]: non-standard residue; d: D form. The star is where a group is joined. ξ: configuration not given here. Biotin = O=C1N[C@H]2[C@H](CS[C@H]2CCCCC(=O)*)N1; Oic(3aξ,7aξ) = O=C(O)[C@@H]1CC2CCCCC2N1; hArg = N=C(N)NCCCC[C@H](N)C(=O)O; Aun = NCCCCCCCCCCC(=O)O; Dab = NCC[C@H](N)C(=O)O; ξK = NCCCCC(N)C(=O)O

What was measured:
VEGA-NRP1 (Homo sapiens) = VEGA-NRP1 (Homo sapiens) (UniProt P15692+O14786); assay: Inhibition of biotinylated-VEGFA165 (unknown origin) binding to C-terminal 6-His tagged human NRP-1 (Phe22 to Lys644 residues) expressed in mouse NS0 cells at 100 uM measured after 2 hrs by chemiluminescence assay relative to control; assay type: cell-based
[1] = Stability in human serum assessed as parent compound remaining measured after 12 hrs by LC-SWATH-MS analysis; assay type: ADME, cell-free; settings: read-out: Stability
[2] = target: VEGFR1-VEGA (Homo sapiens) (UniProt P15692+P17948); assay: Inhibition of human biotinylated-VEGFA165 binding to recombinant human VEGFR1 measured after 2 hrs by chemiluminescent based ELISA; assay type: protein-complex assay
[3] = target: VEGFR2-VEGA (Homo sapiens) (UniProt P15692+P35968); assay: Inhibition of human biotinylated-VEGFA165 binding to recombinant human VEGFR2 measured after 2 hrs by chemiluminescent based ELISA; assay type: protein-complex assay
VEGA-NRP1 = VEGA-NRP1 (Homo sapiens, UniProt O14786); assay: Inhibition of human biotinylated-VEGFA165 binding to recombinant human NRP-1 measured after 2 hrs by chemiluminescent based ELISA; assay type: protein assay
[4] = Stability in human serum assessed as compound degradation measured upto 96 hrs by LC-SWATH-MS analysis; assay type: ADME, cell-free
NRP2-VEGA = target: T1, NRP2-VEGA (Homo sapiens, UniProt O60462+P15692); assay: Inhibition of human biotinylated-VEGFA165 binding to recombinant human NRP-2 measured after 2 hrs by chemiluminescent based ELISA; assay type: protein-complex assay
T1 sequence (P15692 whole entry): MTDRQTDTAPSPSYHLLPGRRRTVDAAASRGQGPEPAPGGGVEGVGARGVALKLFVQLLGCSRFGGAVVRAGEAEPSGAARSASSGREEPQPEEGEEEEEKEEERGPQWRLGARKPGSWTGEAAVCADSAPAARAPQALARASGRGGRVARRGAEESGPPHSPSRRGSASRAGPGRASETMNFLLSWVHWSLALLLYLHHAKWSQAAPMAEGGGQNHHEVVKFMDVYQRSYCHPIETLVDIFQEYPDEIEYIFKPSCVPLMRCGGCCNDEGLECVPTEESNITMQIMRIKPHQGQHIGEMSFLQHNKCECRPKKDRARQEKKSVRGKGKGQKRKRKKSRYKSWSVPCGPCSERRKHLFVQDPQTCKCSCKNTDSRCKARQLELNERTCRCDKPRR
T1 sequence (O60462 whole entry): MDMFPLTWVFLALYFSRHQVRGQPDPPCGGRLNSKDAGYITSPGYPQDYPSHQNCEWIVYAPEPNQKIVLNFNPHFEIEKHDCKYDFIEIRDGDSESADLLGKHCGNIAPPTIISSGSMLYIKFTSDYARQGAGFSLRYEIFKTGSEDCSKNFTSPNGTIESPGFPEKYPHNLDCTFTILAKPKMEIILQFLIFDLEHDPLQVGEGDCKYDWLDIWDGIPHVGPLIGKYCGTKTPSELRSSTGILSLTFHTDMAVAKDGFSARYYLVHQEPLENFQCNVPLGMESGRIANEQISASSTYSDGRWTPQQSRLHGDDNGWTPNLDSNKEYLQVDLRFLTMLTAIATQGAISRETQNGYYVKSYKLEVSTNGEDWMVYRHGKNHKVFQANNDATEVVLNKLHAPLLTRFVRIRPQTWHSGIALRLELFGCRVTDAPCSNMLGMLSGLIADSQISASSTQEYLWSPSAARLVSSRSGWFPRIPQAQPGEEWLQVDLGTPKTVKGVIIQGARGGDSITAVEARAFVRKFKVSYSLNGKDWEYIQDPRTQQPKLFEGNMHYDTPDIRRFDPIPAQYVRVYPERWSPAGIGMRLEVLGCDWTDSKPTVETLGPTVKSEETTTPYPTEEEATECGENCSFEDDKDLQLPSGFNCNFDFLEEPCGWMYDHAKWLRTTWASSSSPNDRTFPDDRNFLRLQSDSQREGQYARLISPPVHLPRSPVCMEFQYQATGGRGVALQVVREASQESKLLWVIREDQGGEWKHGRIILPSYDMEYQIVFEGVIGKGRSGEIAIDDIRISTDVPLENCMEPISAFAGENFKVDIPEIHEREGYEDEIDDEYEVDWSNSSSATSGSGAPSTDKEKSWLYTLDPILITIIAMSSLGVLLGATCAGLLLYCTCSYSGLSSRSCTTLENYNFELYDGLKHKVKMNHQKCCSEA

MDA-MB-231 [5] = assay: Increase in NRP-1 expression in human MDA-MB-231 cell membrane at 7.2 uM preincubated for 15 mins at 4 degC followed by compound washout and further incubated for 60 mins with subsequent addition of compound at 37 degC by FITC-streptavidin staining based flow cytometry analysis; assay type: functional; settings: time 75.0 min
MDA-MB-231 [6] = assay: Increase in NRP-1 expression in human MDA-MB-231 cell membrane at 72 uM preincubated for 15 mins at 4 degC followed by compound washout and further incubated for 5 mins with subsequent addition of compound at 37 degC by FITC-streptavidin staining based flow cytometry analysis; assay type: functional; settings: time 20.0 min
MDA-MB-231 [7] = assay: Increase in NRP-1 expression in human MDA-MB-231 cell membrane at 72 uM preincubated for 15 mins at 4 degC followed by compound washout and further incubated for 60 mins with subsequent addition of compound at 37 degC by FITC-streptavidin staining based flow cytometry analysis; assay type: functional; settings: time 75.0 min
[8] = Half-life in human serum by LC-SWATH-MS analysis; assay type: ADME, cell-free
Homo sapiens = organism: Homo sapiens; assay: Selectivity ratio of IC50 for inhibition of human biotinylated-VEGFA165 binding to recombinant human NRP-1 to IC50 for inhibition of human biotinylated-VEGFA165 binding to recombinant human NRP-2
[9] = target: Neuropilin-1 (Homo sapiens) (UniProt O14786); assay: Binding affinity to NRP-1 in human MDA-MB-435 cells at 12.5 to 100 ug/ml measured after 15 mins by FITC-streptavidin staining based flow cytometry analysis; assay type: cell-based; settings: dose 12.5-100 µg/ml
MDA-MB-231 [10] = assay: Increase in NRP-1 expression in human MDA-MB-231 cell membrane at 5.9 uM preincubated for 15 mins at 4 degC followed by compound washout and further incubated for 60 mins with subsequent addition of compound at 37 degC by FITC-streptavidin staining based flow cytometry analysis; assay type: functional; settings: time 75.0 min
MDA-MB-231 [11] = assay: Increase in NRP-1 expression in human MDA-MB-231 cell membrane at 59 uM preincubated for 15 mins at 4 degC followed by compound washout and further incubated for 5 mins with subsequent addition of compound at 37 degC by FITC-streptavidin staining based flow cytometry analysis; assay type: functional; settings: time 20.0 min
Cell membrane [12] = assay: Binding affinity to human MDA-MB-231 cell membrane at 59 uM preincubated for 15 mins at 4 degC followed by compound washout and further incubated for 5 mins with subsequent addition of compound at 37 degC by FITC-streptavidin staining based flow cytometry analysis; assay type: subcellular; settings: time 20.0 min
Cell membrane [13] = assay: Binding affinity to human MDA-MB-231 cell membrane at 59 uM preincubated for 15 mins at 4 degC followed by compound washout and further incubated for 5 mins with subsequent addition of compound at 37 degC by Alexa Fluor 594-streptavidin staining based fluorescence microscopy; assay type: subcellular; settings: time 20.0 min
MDA-MB-231 [14] = assay: Increase in NRP-1 expression in human MDA-MB-231 cell membrane at 59 uM preincubated for 15 mins at 4 degC followed by compound washout and further incubated for 60 mins with subsequent addition of compound at 37 degC by FITC-streptavidin staining based flow cytometry analysis; assay type: functional; settings: time 75.0 min
[15] = target: Neuropilin-1 (Homo sapiens) (UniProt O14786); assay: Binding affinity to NRP-1 in human MDA-MB-231 cells at 12.5 to 100 ug/ml measured after 15 mins by FITC-streptavidin staining based flow cytometry analysis; assay type: cell-based; settings: dose 12.5-100 µg/ml
Cell membrane [16] = assay: Binding affinity to human MDA-MB-231 cell membrane at 59 uM measured after 15 mins at 4 degC by Alexa Fluor 594-streptavidin staining based fluorescence microscopy; assay type: subcellular
[17] = Stability in human serum assessed as parent compound remaining measured after 8 hrs by LC-SWATH-MS analysis; assay type: ADME, cell-free; settings: read-out: Stability
[18] = Stability in human serum assessed as parent compound remaining measured after 24 hrs by LC-SWATH-MS analysis; assay type: ADME, cell-free; settings: read-out: Stability

Sequence of Neuropilin-1 (Homo sapiens) (O14786 whole entry): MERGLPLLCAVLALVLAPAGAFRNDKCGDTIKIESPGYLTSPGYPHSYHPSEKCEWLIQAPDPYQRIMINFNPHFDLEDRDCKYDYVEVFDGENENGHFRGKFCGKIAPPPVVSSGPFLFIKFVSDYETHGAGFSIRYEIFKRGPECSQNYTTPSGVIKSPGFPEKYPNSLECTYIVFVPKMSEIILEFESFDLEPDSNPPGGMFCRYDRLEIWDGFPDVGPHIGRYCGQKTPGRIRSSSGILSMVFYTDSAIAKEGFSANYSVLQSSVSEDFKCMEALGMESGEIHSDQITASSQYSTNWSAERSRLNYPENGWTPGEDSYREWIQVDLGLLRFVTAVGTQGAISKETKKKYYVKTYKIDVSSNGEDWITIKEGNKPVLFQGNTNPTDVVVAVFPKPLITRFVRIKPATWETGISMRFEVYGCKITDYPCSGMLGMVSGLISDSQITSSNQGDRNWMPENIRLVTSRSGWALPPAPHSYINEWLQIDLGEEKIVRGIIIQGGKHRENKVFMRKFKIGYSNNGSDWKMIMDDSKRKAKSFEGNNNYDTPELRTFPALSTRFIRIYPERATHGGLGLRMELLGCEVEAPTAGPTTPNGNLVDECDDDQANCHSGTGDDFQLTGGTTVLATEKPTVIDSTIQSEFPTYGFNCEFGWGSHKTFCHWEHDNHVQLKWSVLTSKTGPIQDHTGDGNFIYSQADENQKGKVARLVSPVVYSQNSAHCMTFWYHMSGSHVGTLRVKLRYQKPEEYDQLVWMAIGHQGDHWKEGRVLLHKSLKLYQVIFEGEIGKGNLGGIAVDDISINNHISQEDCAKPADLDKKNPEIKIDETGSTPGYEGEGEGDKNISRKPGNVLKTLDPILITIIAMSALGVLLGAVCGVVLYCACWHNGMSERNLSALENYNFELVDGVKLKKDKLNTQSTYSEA
Sequence of VEGA-NRP1 (O14786 whole entry, one chain of several): as the sequence (O14786 whole entry) above
Sequence of VEGA-NRP1 (Homo sapiens) (O14786 22-923 partner limits assumed, one chain of several): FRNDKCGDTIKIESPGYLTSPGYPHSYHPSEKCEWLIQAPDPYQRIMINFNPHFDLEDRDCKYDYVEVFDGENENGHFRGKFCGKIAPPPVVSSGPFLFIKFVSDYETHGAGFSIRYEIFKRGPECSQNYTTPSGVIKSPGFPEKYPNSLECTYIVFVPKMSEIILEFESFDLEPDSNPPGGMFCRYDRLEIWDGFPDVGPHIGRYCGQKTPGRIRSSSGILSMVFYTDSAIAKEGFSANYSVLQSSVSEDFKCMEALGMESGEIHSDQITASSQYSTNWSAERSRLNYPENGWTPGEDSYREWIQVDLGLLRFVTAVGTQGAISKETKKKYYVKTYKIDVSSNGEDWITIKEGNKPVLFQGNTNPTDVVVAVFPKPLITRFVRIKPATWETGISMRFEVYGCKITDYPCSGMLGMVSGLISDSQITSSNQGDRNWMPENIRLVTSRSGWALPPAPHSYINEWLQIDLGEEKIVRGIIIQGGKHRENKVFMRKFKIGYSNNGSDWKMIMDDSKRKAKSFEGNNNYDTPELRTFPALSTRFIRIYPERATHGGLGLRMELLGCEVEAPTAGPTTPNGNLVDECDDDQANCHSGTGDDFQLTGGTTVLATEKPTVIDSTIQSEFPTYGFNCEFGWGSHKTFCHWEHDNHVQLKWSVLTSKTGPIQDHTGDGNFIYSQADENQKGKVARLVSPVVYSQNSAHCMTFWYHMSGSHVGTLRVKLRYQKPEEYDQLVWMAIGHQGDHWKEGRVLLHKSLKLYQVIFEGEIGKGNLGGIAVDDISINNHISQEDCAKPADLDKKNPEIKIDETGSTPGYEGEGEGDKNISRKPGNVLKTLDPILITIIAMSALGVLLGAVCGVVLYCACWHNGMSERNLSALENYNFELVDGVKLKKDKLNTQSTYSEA

Activity [9]: inactive
Activity (Cell membrane [12]): Active
Activity (Cell membrane [13]): Active
Activity [15]: Active
Activity (Cell membrane [16]): Active
Molecule: N=C(N)NCCCC[C@H](NC(=O)CCCCCCCCCCNC(=O)CCCC[C@@H]1SC[C@@H]2NC(=O)N[C@@H]21)C(=O)NCCCC[C@H](NC(=O)[C@@H](N)CS)C(=O)N[C@@H](CCN)C(=O)N1C2CCCCC2C[C@H]1C(=O)N[C@@H](CCCNC(=N)N)C(=O)O (stereo partly drawn) (H-CK([hArg-Aun-Biotin])[Dab][Oic(3aξ,7aξ)]R-OH)
Activity (MDA-MB-231 [10]): inactive
Activity (MDA-MB-231 [11]): Active
Activity (MDA-MB-231 [14]): Active

IC50 (VEGA-NRP1; read-out: IC50): 2410 nM
half-life [8]: 2 h
Molecule: CC[C@H](N)C(=O)N[C@@H](CCCCNC(=O)[C@@H](N)CCCCNC(=N)N)C(=O)N[C@@H](CCN)C(=O)N1C2CCCCC2C[C@H]1C(=O)N[C@@H](CCCNC(=N)N)C(=O)O (some centres not stated) (HELM PEPTIDE1{[Abu].K.[Dab].[O=C([C@@H]1CC2CCCCC2N1[*:1])[*:2]].R}|PEPTIDE2{[N=C(N)NCCCC[C@H](N)C(=O)[*:2]]}$PEPTIDE1,PEPTIDE2,2:R3-1:R2$$$V2.0)

inhibition [2]: inactive
inhibition [3]: inactive
IC50 (VEGA-NRP1; read-out: IC50): 46 nM
Stability [4]: Unstable
IC50 (NRP2-VEGA; read-out: IC50): 9 nM
remaining at 8 h [17]: 47%
half-life [8]: < 8 h
Ratio IC50 (Homo sapiens): 5
Molecule: N=C(N)NCCCC[C@H](NC(=O)[C@@H](N)CS)C(=O)NCCCC[C@H](N)C(=O)N[C@@H](CCN)C(=O)N1C2CCCCC2C[C@H]1C(=O)N[C@@H](CCCNC(=N)N)C(=O)O (some centres not stated) (HELM PEPTIDE1{K.[Dab].[O=C([C@@H]1CC2CCCCC2N1[*:1])[*:2]].R}|PEPTIDE2{C.[N=C(N)NCCCC[C@H](N[*:1])C(=O)[*:2]]}$PEPTIDE1,PEPTIDE2,1:R3-2:R2$$$V2.0)
Activity (MDA-MB-231 [5]): Active
Activity (MDA-MB-231 [6]): Active
Activity (MDA-MB-231 [7]): Active

More lines, now with the values behind:

Molecule: H-CDKPRR-OH
inhibition (VEGA-NRP1 (Homo sapiens)): 96%

Molecule: N=C(N)NCCCC[C@H](N)C(=O)NCCCC[C@H](NC(=O)[C@@H](N)CS)C(=O)N[C@@H](CCN)C(=O)N1C2CCCCC2C[C@H]1C(=O)N[C@@H](CCCNC(=N)N)C(=O)O (some centres not stated) (HELM PEPTIDE1{C.K.[Dab].[O=C([C@@H]1CC2CCCCC2N1[*:1])[*:2]].R}|PEPTIDE2{[N=C(N)NCCCC[C@H](N)C(=O)[*:2]]}$PEPTIDE1,PEPTIDE2,2:R3-1:R2$$$V2.0)
remaining at 12 h [1]: 61%
inhibition [2]: inactive
inhibition [3]: inactive
IC50 (VEGA-NRP1; read-out: IC50): 39 nM
IC50 (VEGA-NRP1; read-out: pIC50 (converted)): 43.1 nM
Stability [4]: Unstable
IC50 (NRP2-VEGA; read-out: IC50): 43 nM
IC50 (NRP2-VEGA; read-out: pIC50 (converted)): 475 nM
Activity (MDA-MB-231 [5]): Active
Activity (MDA-MB-231 [6]): Active
Activity (MDA-MB-231 [7]): Active
half-life [8]: ~8 h
Ratio IC50 (Homo sapiens): 5

Molecule: C[C@@H](O)[C@H](NC(=O)[C@H](CCCNC(=N)N)NC(=O)[C@@H](N)CCC(=O)O)C(=O)N[C@@H](CS)C(=O)N[C@@H](CCCNC(=N)N)C(=O)N[C@@H](CS)C(=O)N[C@@H](CC(=O)O)C(=O)N[C@@H](CCCCN)C(=O)N1CCC[C@H]1C(=O)N[C@@H](CCCNC(=N)N)C(=O)N[C@@H](CCCNC(=N)N)C(=O)O (H-ERTCRCDKPRR-OH)
inhibition (VEGA-NRP1 (Homo sapiens)): 96%

Molecule: N=C(N)NCCCC[C@H](NC(=O)[C@@H](N)CS)C(=O)NCCCCC(NC(=O)CCCCCCCCCCNC(=O)CCCC[C@@H]1SC[C@@H]2NC(=O)N[C@@H]21)C(=O)N[C@@H](CCN)C(=O)N1C2CCCCC2C[C@H]1C(=O)N[C@@H](CCCNC(=N)N)C(=O)O (some centres not stated) ({Biotin-Aun}-[ξK]([hArg-Cys])[Dab][Oic(3aξ,7aξ)]R-OH)
Activity [9]: inactive
Activity (MDA-MB-231 [10]): inactive
Activity (MDA-MB-231 [11]): Active
Activity (Cell membrane [12]): Active
Activity (Cell membrane [13]): Active
Activity (MDA-MB-231 [14]): Active
Activity [15]: Active
Activity (Cell membrane [16]): Active

Molecule: N=C(N)NCCCC[C@H](N)C(=O)NCC[C@H](N)C(=O)N[C@@H](CCN)C(=O)N1C2CCCCC2C[C@H]1C(=O)N[C@@H](CCCNC(=N)N)C(=O)O (some centres not stated) (HELM PEPTIDE1{[Dab].[Dab].[O=C([C@@H]1CC2CCCCC2N1[*:1])[*:2]].R}|PEPTIDE2{[N=C(N)NCCCC[C@H](N)C(=O)[*:2]]}$PEPTIDE1,PEPTIDE2,1:R3-1:R2$$$V2.0)
IC50 (VEGA-NRP1; read-out: pIC50 (converted)): 2240 nM
remaining at 8 h [17]: 56%
remaining at 24 h [18]: 0%
